Reference: patent US20210353639A1, “MAST1 AND USES FOR DIAGNOSING AND TREATING CANCER” (EMORY UNIVERSITY, priority 2018, published 2021)
“Also recorded” adds a separate entry of the source. Each block holds one molecule with its values, some of them ahead of it.

Legend:
[1] = biological target: T1, MAST1 (Homo sapiens, UniProt Q9Y2H9); assay: MAST1 in vitro kinase assay (purified GST-MAST1, ADP-Glo); type: biochemical; conditions: 10 μM drugs incubated with purified GST-MAST1
T1 construct: GST; made in house; host or cells: 293T
Description: GST-MAST1 variants were enriched from 293T and kinase activity was assessed by ADP-Glo Kinase assay using myelin basic protein (MBP) as a substrate.
10 μM drugs were incubated with purified GST-MAST1 and applied to the in vitro kinase assay.
FIG. 7G show data on the effect of lestaurtinib on MAST1 activity at a range of ATP concentrations.

[2] = system: cancer cells
[3] = biological target: T2, MEK1-cRaf complex (Homo sapiens, UniProt P04049+Q02750); assay: In vitro MEK1-cRaf dissociation, purified complex from KB-3-1 cells; type: biochemical
T2 construct: endogenous in cells; host or cells: KB-3-1
Source text: Samples were collected at different time points and subjected to immunoblotting. Density analysis of relative amount of cRaf bound to MEK1 from three biological replicates are shown.

[4] = biological target: T3, cRaf-MEK1 (Homo sapiens, UniProt P04049+Q02750); assay: cRaf-MEK1 dissociation in cancer cells (MEK1 immunoprecipitation); type: cell-based
T3 construct: endogenous in cells; host or cells: KB-3-1 and other cancer cell lines
Description: KB-3-1 cells were treated with different compounds as indicated, followed by MEK1 immunoprecipitation and immunoblotting.

[5] = Tolerability of lestaurtinib and cisplatin dosage (body weight, histopathology, hematopoietic properties); type: in vivo, mice; conditions: 20 mg/kg lestaurtinib and 5 mg/kg cisplatin
[6] = system: KB-3-1 cells; assay: Combination cell viability, Combination Index by CompuSyn, KB-3-1; type: cell-based, human; conditions: lestaurtinib in combination with cisplatin
Source text: (§1) Combination Index (CI) value for cell viability was obtained by CompuSyn.

[7] = system: 212LN cells; assay: Combination cell viability, Combination Index by CompuSyn, 212LN; type: cell-based, human; conditions: lestaurtinib in combination with cisplatin
Source text: as §1

[8] = Cisplatin sensitivity / cell viability with MAST1 inhibitors in KB-3-1 cells; type: cell-based; conditions: human, read-out: attenuation of cell viability when treated alone
[9] = system: TKO-002; assay: Combination cell viability, SCLC patient-derived tumor TKO-002; type: cell-based, human; conditions: combination of lestaurtinib and cisplatin, platinum-refractory SCLC TKO-002
Source text: CI value for synergistic effect is shown.

[10] = system: Lung PDX (Pt-9 tumor); assay: Tumor growth in lung PDX mice (Pt-9 tumor), lestaurtinib or trametinib with cisplatin; type: in vivo; conditions: in combination with cisplatin (5 mg/kg i.p. twice a week); lestaurtinib 20 mg/kg i.p. 5 times a week, trametinib 1 mg/kg oral daily

T1 sequence (Q9Y2H9 whole entry): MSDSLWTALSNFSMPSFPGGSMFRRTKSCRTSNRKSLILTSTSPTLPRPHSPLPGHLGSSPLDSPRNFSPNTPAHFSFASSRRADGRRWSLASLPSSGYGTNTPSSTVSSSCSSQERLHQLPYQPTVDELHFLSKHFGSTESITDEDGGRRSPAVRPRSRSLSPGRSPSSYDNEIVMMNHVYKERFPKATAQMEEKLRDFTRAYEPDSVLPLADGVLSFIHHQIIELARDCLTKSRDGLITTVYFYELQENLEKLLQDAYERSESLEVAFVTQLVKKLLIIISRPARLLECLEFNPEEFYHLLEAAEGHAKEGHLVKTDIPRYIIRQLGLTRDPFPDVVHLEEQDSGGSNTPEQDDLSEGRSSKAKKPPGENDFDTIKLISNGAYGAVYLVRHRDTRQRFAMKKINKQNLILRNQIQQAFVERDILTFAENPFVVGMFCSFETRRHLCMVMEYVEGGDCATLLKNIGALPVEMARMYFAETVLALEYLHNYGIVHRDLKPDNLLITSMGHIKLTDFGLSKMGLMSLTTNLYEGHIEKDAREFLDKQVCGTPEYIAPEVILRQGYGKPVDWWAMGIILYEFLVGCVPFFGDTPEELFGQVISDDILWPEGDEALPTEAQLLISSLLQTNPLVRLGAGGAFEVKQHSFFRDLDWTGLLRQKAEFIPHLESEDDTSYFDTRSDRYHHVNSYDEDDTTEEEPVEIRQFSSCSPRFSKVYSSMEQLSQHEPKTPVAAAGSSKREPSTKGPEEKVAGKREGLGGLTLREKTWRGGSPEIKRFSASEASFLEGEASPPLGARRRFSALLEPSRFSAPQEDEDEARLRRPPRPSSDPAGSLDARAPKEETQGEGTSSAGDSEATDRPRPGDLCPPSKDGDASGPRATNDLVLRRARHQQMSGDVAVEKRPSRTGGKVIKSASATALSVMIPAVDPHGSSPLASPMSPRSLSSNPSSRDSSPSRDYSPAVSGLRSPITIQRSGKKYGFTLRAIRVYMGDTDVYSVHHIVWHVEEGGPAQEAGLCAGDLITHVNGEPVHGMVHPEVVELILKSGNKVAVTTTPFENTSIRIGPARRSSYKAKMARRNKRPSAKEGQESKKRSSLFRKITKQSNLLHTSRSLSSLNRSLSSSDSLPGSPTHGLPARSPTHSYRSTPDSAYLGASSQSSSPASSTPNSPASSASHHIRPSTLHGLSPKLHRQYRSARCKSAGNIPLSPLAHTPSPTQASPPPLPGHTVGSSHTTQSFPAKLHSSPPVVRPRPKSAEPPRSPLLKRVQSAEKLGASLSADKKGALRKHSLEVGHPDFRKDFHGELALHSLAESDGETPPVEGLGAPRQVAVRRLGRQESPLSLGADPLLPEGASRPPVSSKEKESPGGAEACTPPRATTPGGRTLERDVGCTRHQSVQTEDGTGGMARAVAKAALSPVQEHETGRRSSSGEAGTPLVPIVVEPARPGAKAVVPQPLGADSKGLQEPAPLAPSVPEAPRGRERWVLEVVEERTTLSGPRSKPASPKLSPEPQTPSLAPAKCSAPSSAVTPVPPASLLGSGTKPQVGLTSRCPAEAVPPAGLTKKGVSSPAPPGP
T3 sequence (Q02750 whole entry): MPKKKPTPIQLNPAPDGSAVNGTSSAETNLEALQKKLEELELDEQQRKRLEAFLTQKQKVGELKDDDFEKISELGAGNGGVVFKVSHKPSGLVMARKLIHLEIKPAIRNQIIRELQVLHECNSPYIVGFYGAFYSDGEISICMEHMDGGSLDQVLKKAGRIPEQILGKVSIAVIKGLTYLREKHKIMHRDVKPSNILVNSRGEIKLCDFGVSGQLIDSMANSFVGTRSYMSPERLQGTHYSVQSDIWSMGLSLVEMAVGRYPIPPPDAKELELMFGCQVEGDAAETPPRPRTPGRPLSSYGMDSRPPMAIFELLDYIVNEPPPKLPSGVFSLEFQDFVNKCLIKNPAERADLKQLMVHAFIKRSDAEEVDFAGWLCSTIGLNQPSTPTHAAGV
T3 sequence (P04049 whole entry): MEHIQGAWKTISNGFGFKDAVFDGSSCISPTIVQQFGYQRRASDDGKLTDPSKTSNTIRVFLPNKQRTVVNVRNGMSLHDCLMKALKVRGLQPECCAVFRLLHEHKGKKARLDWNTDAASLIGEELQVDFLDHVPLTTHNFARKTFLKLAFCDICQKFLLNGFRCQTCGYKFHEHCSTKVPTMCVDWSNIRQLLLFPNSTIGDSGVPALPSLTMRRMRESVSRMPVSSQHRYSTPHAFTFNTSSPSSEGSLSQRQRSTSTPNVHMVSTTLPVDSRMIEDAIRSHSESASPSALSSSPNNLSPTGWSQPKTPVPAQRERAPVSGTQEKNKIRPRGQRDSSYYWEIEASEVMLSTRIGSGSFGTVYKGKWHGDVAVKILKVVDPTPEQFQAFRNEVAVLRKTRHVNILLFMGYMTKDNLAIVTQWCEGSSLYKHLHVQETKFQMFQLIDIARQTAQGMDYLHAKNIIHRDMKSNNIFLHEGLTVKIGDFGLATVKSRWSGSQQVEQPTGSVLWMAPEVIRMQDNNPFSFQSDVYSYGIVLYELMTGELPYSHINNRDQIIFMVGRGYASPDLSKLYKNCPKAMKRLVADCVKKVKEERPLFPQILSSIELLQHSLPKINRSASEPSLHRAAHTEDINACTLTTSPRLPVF
T2 sequence (Q02750 whole entry): as the sequence (Q02750 whole entry) above
T2 sequence (P04049 whole entry): as the sequence (P04049 whole entry) above

- MAST1 activity in in vitro MAST1 kinase assay [1]: inhibited MAST1 activity in vitro
SMILES: Cc1[nH]c(C=C2C(=O)Nc3ccc(F)cc32)c(C)c1C(=O)NCC(O)CN1CCOCC1 (stereo not drawn) [SU14813, 5-((5-fluoro-2-oxo-1,2-dihydro-3H-indol-3-ylidene)methyl)-N-(2-hydroxy-3-morpholin-4-ylpropyl)-2,4-dimethyl-1H-pyrrole-3-carboxamide]

SMILES: N#CC(=C(/N)Sc1ccccc1N)/C(C#N)=C(\N)Sc1ccccc1N [U0126]
- sensitization of cancer cells to cisplatin by MEK1 inhibitor [2]: sensitized cancer cells to cisplatin

- MAST1 activity in in vitro MAST1 kinase assay [1]: inhibited MAST1 activity in vitro
SMILES: COc1cc(Nc2c(C#N)cnc3cc(OCCCN4CCN(C)CC4)c(OC)cc23)c(Cl)cc1Cl [bosutinib, 4-[(2,4-Dichloro-5-methoxyphenyl)amino]-6-methoxy-7-[3-(4-methyl-1-piperazinyl)propoxy]-3-quinolinecarbonitrile]

SMILES: N.N.[Cl][Pt][Cl] [cisplatin]
- time to dissociation of cRaf from MEK1 ([3]; 5 μg/ml cisplatin, time course): within one hour
- dissociation of cRaf from MEK1 in vitro ([3]; purified MEK1-cRaf complex, cisplatin 0-5 μg/ml for 2 hours): dissociates cRaf from MEK1 in a dose-dependent manner
- dissociation of cRaf from MEK1 in diverse types of cancer cells ([4]; 5 μg/ml cisplatin for 24 hours): dissociates cRaf

- MAST1 activity in in vitro MAST1 kinase assay [1]: inhibited MAST1 activity in vitro
SMILES: CN1CCN(c2ccc3[nH]c(-c4c(N)c5c(F)cccc5[nH]c4=O)nc3c2)CC1 [dovitinib, 4-amino-5-fluoro-3-(5-(4-methylpiperazin-1-yl)-1H-benzimidazol-2-yl)quinolin-2(1H)-one]

SMILES: C[C@]12O[C@H](C[C@]1(O)CO)n1c3ccccc3c3c4c(c5c6ccccc6n2c5c31)CNC4=O [lestaurtinib, 7-hydroxy-7-(hydroxymethyl)-8-methyl-5,6,7,8,13,14-hexahydro-15H-16-oxa-4b,8a,14-triaza-5,8-methanodibenzo[b,h]cycloocta[jkl]cyclopenta[e]-as-indacen-15-one]
- changes in body weight, histopathology, or hematopoietic properties [5]: did not induce significant changes
- combination index (CI) for cell viability [6]: 0.256
- combination index (CI) for cell viability [7]: 0.257
- cytotoxicity at 48 h, 100 nM [8]: < 20%
- CI value for cell viability [9]: 0.57

SMILES: CC(=O)O[C@H]1C(=O)[C@@]2(C)[C@H]([C@H](OC(=O)c3ccccc3)[C@]3(O)C[C@H](OC(=O)[C@H](O)[C@@H](NC(=O)c4ccccc4)c4ccccc4)C(C)=C1C3(C)C)[C@]1(OC(C)=O)CO[C@@H]1C[C@@H]2O [paclitaxel]
- dissociation of cRaf-MEK1 induced by DNA damaging agents and cytotoxic drugs ([4]; KB-3-1 cells): not

SMILES: CN[C@@H]1C[C@H]2O[C@@](C)([C@@H]1OC)n1c3ccccc3c3c4c(c5c6ccccc6n2c5c31)C(=O)NC4 [staurosporine, 6-methoxy-5-methyl-7-methylamino-6,7,8,9,15,16-hexahydro-5H,14H-5,9-epoxy-4b,9a,15-triazadibenzo[b,h]cyclonona[1,2,3,4-jkl]cyclopenta[e]-as-indacen-14-one]
- MAST1 activity in in vitro MAST1 kinase assay [1]: inhibited MAST1 activity in vitro

SMILES: CC(=O)Nc1cccc(-n2c(=O)n(C3CC3)c(=O)c3c(Nc4ccc(I)cc4F)n(C)c(=O)c(C)c32)c1 [trametinib, N-[3-[3-cyclopropyl-5-[(2-fluoro-4-iodophenyl)amino]-3,4,6,7-tetrahydro-6,8-dimethyl-2,4,7-trioxopyrido[4,3-d]pyrimidin-1(2H)-yl]phenyl]acetamide]
- PDX tumor growth and proliferation [10]: attenuated PDX tumor growth and proliferation; also recorded: sensitizes cancer cells to cisplatin
